According to patent publication US8802597B2, “Herbicidal pyrimidines” (E I du Pont de Nemours and Company, priority 2003, dated 2014):
Like-named read-outs stand apart in the source and are kept apart here.

Legend:
Experiment in all cases: Test C pre/postemergence
Type in all cases: in vivo
[1] = tested on: yellow nutsedge (Cyperus esculentus); settings: Cyperus; for pest or weed control at 31 g/ha: 31 g ai/ha; for pest or weed control at 62 g/ha: 62 g ai/ha; for pest or weed control at 125 g/ha: 125 g ai/ha; for pest or weed control at 250 g/ha: 250 g ai/ha
How it was run: (§1)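 Rating scale 0–100: 0 means no effect, 100 complete control; taken visually 12 to 14 days post-treatment versus controls. Pre- and postemergence greenhouse applications, postemergence at 1- to 4-leaf stage, non-phytotoxic solvent with surfactant as carrier.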

[2] = tested on: giant foxtail (Setaria faberii); settings: Setaria faberi; for pest or weed control at 125 g/ha: 125 g ai/ha; for pest or weed control at 31 g/ha: 31 g ai/ha; for pest or weed control at 62 g/ha: 62 g ai/ha; for pest or weed control at 250 g/ha: 250 g ai/ha
How it was run: as §1

[3] = tested on: velvetleaf (Abutilon theophrasti); settings: Abutilon theophrasti; for pest or weed control at 31 g/ha: 31 g ai/ha; for pest or weed control at 62 g/ha: 62 g ai/ha; for pest or weed control at 125 g/ha: 125 g ai/ha; for pest or weed control at 250 g/ha: 250 g ai/ha
How it was run: as §1

[4] = tested on: morningglory (Ipomoea coccinea); settings: Ipomoea; for pest or weed control at 31 g/ha: 31 g ai/ha; for pest or weed control at 62 g/ha: 62 g ai/ha; for pest or weed control at 125 g/ha: 125 g ai/ha; for pest or weed control at 250 g/ha: 250 g ai/ha
How it was run: as §1

[5] = tested on: woolly cupgrass (Eriochloa villosa); settings: Eriochloa villosa; for pest or weed control at 31 g/ha: 31 g ai/ha; for pest or weed control at 62 g/ha: 62 g ai/ha; for pest or weed control at 125 g/ha: 125 g ai/ha; for pest or weed control at 250 g/ha: 250 g ai/ha
How it was run: as §1

[6] = tested on: eastern black nightshade (Solanum ptycanthum); settings: Solanum, pre-emergence, Preemergence, read-out: Plant response rating, Nightshade
How it was run: as §1

[7] = post-emergence, Postemergence, scale 0 to 100 (0 no effect, 100 complete control), read-out: Nutsedge, Yellow plant response rating
[8] = pre-emergence, Preemergence, scale 0 to 100, 0 no effect, 100 complete control, read-out: Plant response rating, Nutsedge, Yellow
[9] = pre-emergence, Preemergence, scale 0 to 100, read-out: Plant response rating, Nutsedge, Yellow
[10] = post-emergence, Postemergence, scale 0 to 100 (0 no effect, 100 complete control), read-out: Foxtail, Giant plant response rating
[11] = pre-emergence, Preemergence, scale 0 to 100, 0 no effect, 100 complete control, read-out: Plant response rating, Foxtail, Giant
[12] = pre-emergence, Preemergence, scale 0 to 100, read-out: Plant response rating, Foxtail, Giant
[13] = post-emergence, Postemergence, scale 0 to 100 (0 no effect, 100 complete control), read-out: Velvetleaf plant response rating
[14] = pre-emergence, Preemergence, scale 0 to 100, 0 no effect, 100 complete control, read-out: Plant response rating, Velvetleaf
[15] = pre-emergence, Preemergence, scale 0 to 100, read-out: Plant response rating, Velvetleaf
[16] = post-emergence, Postemergence, scale 0 to 100 (0 no effect, 100 complete control), read-out: Morningglory plant response rating
[17] = pre-emergence, Preemergence, scale 0 to 100, 0 no effect, 100 complete control, read-out: Plant response rating, Morningglory
[18] = pre-emergence, Preemergence, scale 0 to 100, read-out: Plant response rating, Morningglory
[19] = post-emergence, Postemergence, scale 0 to 100 (0 no effect, 100 complete control), read-out: Cupgrass, Woolly plant response rating
[20] = pre-emergence, Preemergence, scale 0 to 100, 0 no effect, 100 complete control, read-out: Plant response rating, Cupgrass, Woolly
[21] = pre-emergence, Preemergence, scale 0 to 100, read-out: Plant response rating, Cupgrass, Woolly

COC(=O)c1nc(C2CC2)nc(N)c1Br [Compound 2, methyl 6-amino-5-bromo-2-cyclopropyl-4-pyrimidinecarboxylate]
30%: pest or weed control at 250 g/ha [2, 12]
35%: pest or weed control at 62 g/ha [2, 10]
40%: pest or weed control at 31 g/ha ([5]; post-emergence, Postemergence, read-out: Plant response rating (scale of 0 to 100), Cupgrass, Woolly)
80%: pest or weed control at 125 g/ha [3, 13]
75%: pest or weed control at 125 g/ha [3, 15] | pest or weed control at 62 g/ha [4, 16] | pest or weed control at 250 g/ha ([5]; post-emergence, Postemergence, scale 0 to 100, read-out: Plant response rating, Cupgrass, Woolly)
100%: pest or weed control at 250 g/ha ([3]; post-emergence, Postemergence, scale 0 to 100, read-out: Plant response rating, Velvetleaf) | pest or weed control at 125 g/ha [4, 16] | pest or weed control at 250 g/ha ([4]; post-emergence, Postemergence, scale 0 to 100, read-out: Plant response rating, Morningglory) | pest or weed control at 31 g/ha [4, 17] | pest or weed control at 62 g/ha [4, 17] | pest or weed control at 125 g/ha [4, 18] | pest or weed control at 250 g/ha [4, 18] | pest or weed control at 125 g/ha ([6]; 125 g ai/ha, scale 0 to 100)
90%: pest or weed control at 250 g/ha [3, 15]
70%: pest or weed control at 250 g/ha ([2]; post-emergence, Postemergence, scale 0 to 100, read-out: Plant response rating, Foxtail, Giant) | pest or weed control at 62 g/ha [3, 13] | pest or weed control at 31 g/ha ([4]; post-emergence, Postemergence, read-out: Plant response rating (scale of 0 to 100), Morningglory) | pest or weed control at 125 g/ha [5, 19]
50%: pest or weed control at 62 g/ha [3, 14]
0%: pest or weed control at 31 g/ha ([1]; post-emergence, Postemergence, read-out: Plant response rating (scale of 0 to 100), Nutsedge, Yellow) | pest or weed control at 62 g/ha [1, 7] | pest or weed control at 125 g/ha [1, 7] | pest or weed control at 31 g/ha [1, 8] | pest or weed control at 62 g/ha [1, 8] | pest or weed control at 125 g/ha [1, 9] | pest or weed control at 250 g/ha [1, 9] | pest or weed control at 31 g/ha ([2]; post-emergence, Postemergence, read-out: Plant response rating (scale of 0 to 100), Foxtail, Giant) | pest or weed control at 31 g/ha [2, 11] | pest or weed control at 62 g/ha [2, 11] | pest or weed control at 125 g/ha [2, 12] | pest or weed control at 31 g/ha [5, 20] | pest or weed control at 62 g/ha [5, 20] | pest or weed control at 125 g/ha [5, 21] | pest or weed control at 31 g/ha ([6]; 31 g ai/ha, scale 0 to 100, 0 no effect, 100 complete control)
20%: pest or weed control at 250 g/ha ([1]; post-emergence, Postemergence, scale 0 to 100, read-out: Plant response rating, Nutsedge, Yellow) | pest or weed control at 31 g/ha [3, 14] | pest or weed control at 62 g/ha ([6]; 62 g ai/ha, scale 0 to 100, 0 no effect, 100 complete control)
65%: pest or weed control at 125 g/ha [2, 10] | pest or weed control at 31 g/ha ([3]; post-emergence, Postemergence, read-out: Plant response rating (scale of 0 to 100), Velvetleaf)
45%: pest or weed control at 250 g/ha [5, 21]
60%: pest or weed control at 62 g/ha [5, 19]
